From patent publication US20070299047A1, “Combination of Organic Compounds” (priority 2004, published 2007) come the findings set out here.

The test system of assay [1] is ob/ob mice. Briefly: Food intake in ob/ob mice after seven days of treatment. The conditions noted are these: 5 mg/kg/day. The class given is in vivo.
Assay [2] deals with Chrna2 (cholinergic receptor, neuronal nicotinic, alpha polypeptide 2). Briefly: Chrna2 gene expression in the duodenum of treated ob/ob mice. It is filed as in vivo. The conditions noted are these: p<0.01.

As to `Cc1oc(-c2ccc(C(F)(F)F)cc2)nc1COc1ccc(S(=O)(=O)N2c3ccccc3C[C@@H]2C(=O)O)cc1` [(R)-1-{4-[5-methyl-2-(4-trifluoromethyl-phenyl)-oxazol-4-ylmethoxy]-benzenesulfonyl}-2,3-dihydro-1H-indole-2-carboxylic acid], in assay [1] (by day 7, p<0.01), the “daily food intake down by” value turned out to be 50%. For the same compound, the “food intake compared to vehicle” value in assay [1] (starting on day 3) was “significantly lowered food intake”. Also, the “Chrna2 expression in the duodenum increased by” value in assay [2] (after 1 day of treatment) is 15 fold; in assay [2] (after 2 days of treatment), 11 fold; in assay [2] (after 7 days of treatment) it was about 140 fold.
